{"source": "patent US9278981B2", "about": "“Compounds and compositions for inhibiting the activity of ABL1, ABL2 and BCR-ABL1” (Novartis AG, priority 2012, dated 2016)", "key": {"[1]": {"target": "T1, ABL1 (64-515) (Homo sapiens (Human), UniProt P00519)", "T1 sequence (P00519 64-515)": "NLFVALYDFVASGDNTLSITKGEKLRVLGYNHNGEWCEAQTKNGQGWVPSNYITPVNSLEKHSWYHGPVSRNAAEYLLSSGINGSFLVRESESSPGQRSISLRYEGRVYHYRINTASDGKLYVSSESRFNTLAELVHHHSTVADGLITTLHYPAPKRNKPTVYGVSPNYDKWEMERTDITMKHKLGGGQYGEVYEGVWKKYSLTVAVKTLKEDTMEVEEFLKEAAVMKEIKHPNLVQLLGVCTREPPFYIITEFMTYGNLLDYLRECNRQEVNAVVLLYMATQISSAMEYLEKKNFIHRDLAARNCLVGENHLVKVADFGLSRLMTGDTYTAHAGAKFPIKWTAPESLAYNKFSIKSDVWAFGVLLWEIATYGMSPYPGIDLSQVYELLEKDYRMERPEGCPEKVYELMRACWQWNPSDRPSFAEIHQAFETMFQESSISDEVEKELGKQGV", "experiment": "Caliper ABL1 (64-515) assay (microfluidic mobility shift)", "format": "biochemical", "method": "Expression and purification of human ABL was performed using standard expression purification procedures. […] The His-ABL was expressed in E. coli BL21 (DE3) and the ABL proteins were isolated by Ni-affinity on a Ni-NTA column (Qiagen). The His-tag was removed by PreScission protease (GE Healthcare) and the non-phosphoprylated ABL further purified on a Mono Q HR 10/10 (GE Healthcare, mono-phosphorylated ABL is about 10-20% of total ABL protein) and HiLoad 16/60 Superdex 200 size exclusion column (GE Healthcare).\nAll assays were performed in 384-well microtiter plates. Each assay plate contained 8-point serial dilutions for 40 test compounds, as well as four 8-point serial dilutions of staurosporine as a reference compound, plus 16 high and 16 low controls. Liquid handling and incubation steps were done on a Thermo CatX workstation equipped with Innovadyne Nanodrop Express. Between pipetting steps, tips were cleaned in wash cycles using wash buffer.\nThe assay plates were prepared by addition of 50 nL per well of compound solution in 90% DMSO. […] Plates with terminated kinase reactions were transferred to the Caliper LC3000 workstations for reading. Phosphorylated and unphosphorylated peptides were separated using the Caliper microfluidic mobility shift technology. Briefly, samples from terminated kinase reactions were applied to the chip. Analytes are transported through the chip by constant buffer flow and the migration of the substrate peptide is monitored by the fluorescence signal of its label. Phosphorylated peptide (product) and unphosphorylated peptide (substrate) are separated in an electric field by their charge/mass ratio. Kinase activities were calculated from the amounts of formed phospho-peptide. IC50 values were determined from percent inhibition values at different compound concentrations by non-linear regression analysis.\nTest compounds were dissolved in DMSO (10 mM) and transferred into 1.4 mL flat bottom or V-shaped Matrix tubes carrying a unique 2D matrix. The stock solutions were stored at +2° C. if not used immediately. For the test procedure the vials were defrosted and identified by a scanner whereby a working sheet was generated that guided the subsequent working steps.\nCompound dilutions were made in 96-well plates. This format enabled the assay of maximally 40 individual test compounds at 8 concentrations (single points) including 4 reference compounds. The dilution protocol included the production of “pre-dilution plates”, “master plates” and “assay plates”.\nPolypropylene 96-well plates were used as pre-dilution plates. […] All dilution steps were done on a HamiltonSTAR robot.\nThese plates were used directly for the assay which was performed in a total volume of 9.05 μL."}, "[2]": {"target": "T1, ABL1 (64-515)", "experiment": "Radio ABL1 (64-515) assay (radiometric filter-binding)", "format": "biochemical"}, "[3]": {"conditions": "comparison of ortho substitution on the R3/R4 ring"}}, "data": [{"smiles": "O=C(Nc1ccc(OC(F)(F)F)cc1Cl)c1cnc(N2CC[C@@H](O)C2)c(-c2cncnc2)c1", "values": [{"measurement": "IC50", "setting": "[1]; [3]", "value": 850, "unit": "nM"}]}, {"smiles": "O=C(Nc1c(Cl)cc(OC(F)(F)F)cc1Cl)c1cnc(N2CC[C@@H](O)C2)c(-c2cncnc2)c1", "values": [{"measurement": "IC50", "setting": "[1]; [3]", "value": "> 10000", "unit": "nM"}]}, {"smiles": "N#Cc1ccc(-c2cc(C(=O)Nc3ccc(OC(F)(F)F)cc3)cnc2N2CC[C@H](CO)C2)cn1", "note": "[Example 91, (S)-6′-Cyano-2-(3-(hydroxymethyl)pyrrolidin-1-yl)-N-(4-(trifluoromethoxy)phenyl)-[3,3′-bipyridine]-5-carboxamide]", "values": [{"measurement": "IC50", "setting": "[2]", "value": 5, "unit": "nM"}]}, {"smiles": "N[C@@H]1CCN(c2ncc(C(=O)Nc3ccc(OC(F)(F)F)cc3)cc2-c2cccnc2)C1", "note": "[Example 94, (R)-2-(3-Aminopyrrolidin-1-yl)-N-(4-(trifluoromethoxy)phenyl)-[3,3′-bipyridine]-5-carboxamide]", "values": [{"measurement": "IC50", "setting": "[2]", "value": "< 3", "unit": "nM"}]}, {"smiles": "Cc1ccc(-c2cc(C(=O)Nc3ccc(OC(F)(F)F)cc3)cnc2N2CC[C@@H](N)C2)cn1", "note": "[Example 95, (R)-2-(3-Aminopyrrolidin-1-yl)-6′-methyl-N-(4-(trifluoromethoxy)phenyl)-[3,3′-bipyridine]-5-carboxamide]", "values": [{"measurement": "IC50", "setting": "[2]", "value": "< 3", "unit": "nM"}]}, {"smiles": "N[C@H]1CCN(c2ncc(C(=O)Nc3ccc(OC(F)(F)F)cc3)cc2-c2cccnc2)C1", "note": "[Example 97, (S)-2-(3-Aminopyrrolidin-1-yl)-N-(4-(trifluoromethoxy)phenyl)-[3,3′-bipyridine]-5-carboxamide]", "values": [{"measurement": "IC50", "setting": "[2]", "value": "< 3", "unit": "nM"}]}, {"smiles": "CN[C@@H]1CCN(c2ncc(C(=O)Nc3ccc(OC(F)(F)F)cc3)cc2-c2cncnc2)C1", "note": "[Example 99, (R)-6-(3-(Methylamino)pyrrolidin-1-yl)-5-(pyrimidin-5-yl)-N-(4-(trifluoromethoxy)phenyl)nicotinamide]", "values": [{"measurement": "IC50", "setting": "[2]", "value": "< 3", "unit": "nM"}]}, {"smiles": "CN[C@@H]1CCN(c2ncc(C(=O)Nc3ccc(OC(F)(F)F)cc3)cc2-c2cccnc2)C1", "note": "[Example 100, (R)-2-(3-(Methylamino)pyrrolidin-1-yl)-N-(4-(trifluoromethoxy)phenyl)-[3,3′-bipyridine]-5-carboxamide]", "values": [{"measurement": "IC50", "setting": "[2]", "value": "< 3", "unit": "nM"}]}, {"smiles": "CN[C@@H]1CCN(c2ncc(C(=O)Nc3ccc(OC(F)(F)F)cc3)cc2-c2ccc(C)nc2)C1", "note": "[Example 101, (R)-6′-Methyl-2-(3-(methylamino)pyrrolidin-1-yl)-N-(4-(trifluoromethoxy)phenyl)-[3,3′-bipyridine]-5-carboxamide]", "values": [{"measurement": "IC50", "setting": "[2]", "value": "< 3", "unit": "nM"}]}, {"smiles": "CN[C@H]1CCN(c2ncc(C(=O)Nc3ccc(OC(F)(F)F)cc3)cc2-c2cccnc2)C1", "note": "[Example 103, (S)-2-(3-(Methylamino)pyrrolidin-1-yl)-N-(4-(trifluoromethoxy)phenyl)-[3,3′-bipyridine]-5-carboxamide]", "values": [{"measurement": "IC50", "setting": "[2]", "value": "< 3", "unit": "nM"}]}, {"smiles": "CN[C@H]1CCN(c2ncc(C(=O)Nc3ccc(OC(F)(F)F)cc3)cc2-c2ccc(C)nc2)C1", "note": "[Example 104, (S)-6′-Methyl-2-(3-(methylamino)pyrrolidin-1-yl)-N-(4-(trifluoromethoxy)phenyl)-[3,3′-bipyridine]-5-carboxamide]", "values": [{"measurement": "IC50", "setting": "[2]", "value": 3, "unit": "nM"}]}, {"smiles": "NC[C@H]1CCN(c2ncc(C(=O)Nc3ccc(OC(F)(F)F)cc3)cc2-c2cccnc2)C1", "note": "[Example 106, (R)-2-(3-(Aminomethyl)pyrrolidin-1-yl)-N-(4-(trifluoromethoxy)phenyl)-[3,3′-bipyridine]-5-carboxamide]", "values": [{"measurement": "IC50", "setting": "[2]", "value": "< 3", "unit": "nM"}]}, {"smiles": "Cc1ccc(-c2cc(C(=O)Nc3ccc(OC(F)(F)F)cc3)cnc2N2CC[C@H](CN)C2)cn1", "note": "[Example 107, (R)-2-(3-(Aminomethyl)pyrrolidin-1-yl)-6′-methyl-N-(4-(trifluoromethoxy)phenyl)-[3,3′-bipyridine]-5-carboxamide]", "values": [{"measurement": "IC50", "setting": "[2]", "value": "< 3", "unit": "nM"}]}, {"smiles": "NC[C@@H]1CCN(c2ncc(C(=O)Nc3ccc(OC(F)(F)F)cc3)cc2-c2cccnc2)C1", "note": "[Example 109, (S)-2-(3-(Aminomethyl)pyrrolidin-1-yl)-N-(4-(trifluoromethoxy)phenyl)-[3,3′-bipyridine]-5-carboxamide]", "values": [{"measurement": "IC50", "setting": "[2]", "value": "< 3", "unit": "nM"}]}, {"smiles": "Cc1ccc(-c2cc(C(=O)Nc3ccc(OC(F)(F)F)cc3)cnc2N2CC[C@@H](CN)C2)cn1", "note": "[Example 110, (S)-2-(3-(Aminomethyl)pyrrolidin-1-yl)-6′-methyl-N-(4-(trifluoromethoxy)phenyl)-[3,3′-bipyridine]-5-carboxamide]", "values": [{"measurement": "IC50", "setting": "[2]", "value": 5, "unit": "nM"}]}, {"smiles": "COc1ccc(-c2cc(C(=O)Nc3ccc(OC(F)(F)F)cc3)cnc2N2CC[C@@H](CN)C2)cn1", "note": "[Example 111, (S)-2-(3-(Aminomethyl)pyrrolidin-1-yl)-6′-methoxy-N-(4-(trifluoromethoxy)phenyl)-[3,3′-bipyridine]-5-carboxamide]", "values": [{"measurement": "IC50", "setting": "[2]", "value": "< 3", "unit": "nM"}]}, {"smiles": "CN(C)C1CCN(c2ncc(C(=O)Nc3ccc(OC(F)(F)F)cc3)cc2-c2cncnc2)C1", "note": "(centres unmarked) [Example 112, 6-(3-(Dimethylamino)pyrrolidin-1-yl)-5-(pyrimidin-5-yl)-N-(4-(trifluoromethoxy)phenyl)nicotinamide]", "values": [{"measurement": "IC50", "setting": "[2]", "value": "< 3", "unit": "nM"}]}, {"smiles": "CC(C)(O)C1CCN(c2ncc(C(=O)Nc3ccc(OC(F)(F)F)cc3)cc2-c2cccnc2)C1", "note": "(centres unmarked) [Example 114, 2-(3-(2-Hydroxypropan-2-yl)pyrrolidin-1-yl)-N-(4-(trifluoromethoxy)phenyl)-[3,3′-bipyridine]-5-carboxamide]", "values": [{"measurement": "IC50", "setting": "[2]", "value": 6, "unit": "nM"}]}, {"smiles": "Cc1ccc(-c2cc(C(=O)Nc3ccc(OC(F)(F)F)cc3)cnc2N2CCC(C(C)(C)O)C2)cn1", "note": "(centres unmarked) [Example 115, 2-(3-(2-Hydroxypropan-2-yl)pyrrolidin-1-yl)-6′-methyl-N-(4-(trifluoromethoxy)phenyl)-[3,3′-bipyridine]-5-carboxamide]", "values": [{"measurement": "IC50", "setting": "[2]", "value": 16, "unit": "nM"}]}, {"smiles": "CC1(O)CN(c2ncc(C(=O)Nc3ccc(OC(F)(F)F)cc3)cc2-c2cnc(Cl)c(F)c2)C1", "note": "[Example 134, 6′-Chloro-5′-fluoro-2-(3-hydroxy-3-methylazetidin-1-yl)-N-(4-(trifluoromethoxy)phenyl)-[3,3′-bipyridine]-5-carboxamide]", "values": [{"measurement": "IC50", "setting": "[2]", "value": 10, "unit": "nM"}]}, {"smiles": "Cc1ncc(-c2cc(C(=O)Nc3ccc(OC(F)(F)F)cc3)cnc2N2CC(CO)C2)cn1", "note": "[Example 136, 6-(3-(Hydroxymethyl)azetidin-1-yl)-5-(2-methylpyrimidin-5-yl)-N-(4-(trifluoromethoxy)phenyl)nicotinamide]", "values": [{"measurement": "IC50", "setting": "[2]", "value": "< 3", "unit": "nM"}]}, {"smiles": "O=C(Nc1ccc(OC(F)(F)F)cc1)c1cnc(N2CC(CO)C2)c(-c2cnc(Cl)c(F)c2)c1", "note": "[Example 141, 6′-Chloro-5′-fluoro-2-(3-(hydroxymethyl)azetidin-1-yl)-N-(4-(trifluoromethoxy)phenyl)-[3,3′-bipyridine]-5-carboxamide]", "values": [{"measurement": "IC50", "setting": "[2]", "value": 6, "unit": "nM"}]}, {"smiles": "O=C(Nc1ccc(OC(F)(F)F)cc1)c1cnc(N2CCCNCC2)c(-c2cccnc2)c1", "note": "[Example 145, 2-(1,4-Diazepan-1-yl)-N-(4-(trifluoromethoxy)phenyl)-[3,3′-bipyridine]-5-carboxamide]", "values": [{"measurement": "IC50", "setting": "[2]", "value": 4, "unit": "nM"}]}, {"smiles": "CN1CCCN(c2ncc(C(=O)Nc3ccc(OC(F)(F)F)cc3)cc2-c2cccnc2)CC1", "note": "[Example 146, 2-(4-Methyl-1,4-diazepan-1-yl)-N-(4-(trifluoromethoxy)phenyl)-[3,3′-bipyridine]-5-carboxamide]", "values": [{"measurement": "IC50", "setting": "[2]", "value": "< 3", "unit": "nM"}]}, {"smiles": "Cc1ccc(-c2cc(C(=O)Nc3ccc(OC(F)(F)F)cc3)cnc2N2CCCN(C)CC2)cn1", "note": "[Example 147, 6′-Methyl-2-(4-methyl-1,4-diazepan-1-yl)-N-(4-(trifluoromethoxy)phenyl)-[3,3′-bipyridine]-5-carboxamide]", "values": [{"measurement": "IC50", "setting": "[2]", "value": "< 3", "unit": "nM"}]}, {"smiles": "Cc1ccc(-c2cc(C(=O)Nc3ccc(OC(F)(F)F)cc3)cnc2N(C)CCO)cn1", "note": "[Example 153, 2-((2-Hydroxyethyl)(methyl)amino)-6′-methyl-N-(4-(trifluoromethoxy)phenyl)-[3,3′-bipyridine]-5-carboxamide]", "values": [{"measurement": "IC50", "setting": "[2]", "value": "< 3", "unit": "nM"}]}, {"smiles": "O=C(Nc1ccc(OC(F)(F)F)cc1)c1cnc(NCCO)c(-c2cccnc2)c1", "note": "[Example 159, 2-((2-Hydroxyethyl)amino)-N-(4-(trifluoromethoxy)phenyl)-[3,3′-bipyridine]-5-carboxamide]", "values": [{"measurement": "IC50", "setting": "[2]", "value": "< 3", "unit": "nM"}]}, {"smiles": "Cc1ccc(-c2cc(C(=O)Nc3ccc(OC(F)(F)F)cc3)cnc2NCCO)cn1", "note": "[Example 160, 2-((2-Hydroxyethyl)amino)-6′-methyl-N-(4-(trifluoromethoxy)phenyl)-[3,3′-bipyridine]-5-carboxamide]", "values": [{"measurement": "IC50", "setting": "[2]", "value": "< 3", "unit": "nM"}]}, {"smiles": "Cc1ccc(-c2cc(C(=O)Nc3ccc(OC(F)(F)F)cc3)cnc2NCCCO)cn1", "note": "[Example 163, 2-((3-Hydroxypropyl)amino)-6′-methyl-N-(4-(trifluoromethoxy)phenyl)-[3,3′-bipyridine]-5-carboxamide]", "values": [{"measurement": "IC50", "setting": "[2]", "value": "< 3", "unit": "nM"}]}, {"smiles": "COc1ccc(-c2cc(C(=O)Nc3ccc(OC(F)(F)F)cc3)cnc2NCCCO)cn1", "note": "[Example 164, 2-((3-Hydroxypropyl)amino)-6′-methoxy-N-(4-(trifluoromethoxy)phenyl)-[3,3′-bipyridine]-5-carboxamide]", "values": [{"measurement": "IC50", "setting": "[2]", "value": 12, "unit": "nM"}]}, {"smiles": "CN(CCCO)c1ncc(C(=O)Nc2ccc(OC(F)(F)F)cc2)cc1-c1cncnc1", "note": "[Example 165, 6-((3-Hydroxypropyl)(methyl)amino)-5-(pyrimidin-5-yl)-N-(4-(trifluoromethoxy)phenyl)nicotinamide]", "values": [{"measurement": "IC50", "setting": "[2]", "value": "< 3", "unit": "nM"}]}, {"smiles": "Cc1ccc(-c2cc(C(=O)Nc3ccc(OC(F)(F)F)cc3)cnc2N(C)CCCO)cn1", "note": "[Example 167, 2-((3-Hydroxypropyl)(methyl)amino)-6′-methyl-N-(4-(trifluoromethoxy)phenyl)-[3,3′-bipyridine]-5-carboxamide]", "values": [{"measurement": "IC50", "setting": "[2]", "value": 30, "unit": "nM"}]}, {"smiles": "CN(C)CCCN(C)c1ncc(C(=O)Nc2ccc(OC(F)(F)F)cc2)cc1-c1cccnc1", "note": "[Example 168, 2-((3-(Dimethylamino)propyl)(methyl)amino)-N-(4-(trifluoromethoxy)phenyl)-[3,3′-bipyridine]-5-carboxamide]", "values": [{"measurement": "IC50", "setting": "[2]", "value": "< 3", "unit": "nM"}]}, {"smiles": "NC12CC1CN(c1ncc(C(=O)Nc3ccc(OC(F)(F)F)cc3)cc1-c1cncnc1)C2", "note": "(centres unmarked) [Example 226, 6-(1-Amino-3-azabicyclo[3.1.0]hexan-3-yl)-5-(pyrimidin-5-yl)-N-(4-(trifluoromethoxy)phenyl)nicotinamide]", "values": [{"measurement": "IC50", "setting": "[1]", "value": 1.9, "unit": "nM"}]}, {"smiles": "O=C(Nc1ccc(OC(F)(F)F)cc1)c1cnc(N2CC[C@@H](O)C2)c(-c2cncc(C(F)(F)F)c2)c1", "note": "[Example 234, (R)-2-(3-Hydroxypyrrolidin-1-yl)-N-(4-(trifluoromethoxy)phenyl)-5′-(trifluoromethyl)-[3,3′-bipyridine]-5-carboxamide]", "values": [{"measurement": "IC50", "setting": "[2]", "value": 19, "unit": "nM"}]}]}
